Test results reported in PMC9266561, “1,3-Benzodioxole Derivatives Improve the Anti-Tumor Efficiency of Arsenicals” (International Journal of Molecular Sciences, 2022).
Where two headings read alike, the source gives them in different places.

Assays:
Molm-13 = test: cells; assay type: cell-based; conditions: Homo sapiens
NB4 = test: cells; assay type: cell-based; conditions: Homo sapiens
4T1 = test: cells; assay type: cell-based; conditions: Mus musculus
HeLa = test: cells; assay type: cell-based, human; conditions: Homo sapiens, HeLa
COS-7 = test: cells; assay type: cell-based, African green monkey; conditions: Chlorocebus sabaeus
PBMC = test: cells; assay type: cell-based, rat; conditions: Rattus norvegicus, PBMC
cancer cells = test: MTT assay, cancer cell lines taken together; assay type: cell-based; conditions: even at a high dosage, Figure S2
Procedure: The bioactivity of all the synthetic compounds was evaluated by a MTT assay (Table 1, Tables S1 and S2) against two leukemia cell lines, Molm-13 and NB4; two solid tumor cell lines, HeLa (human cervix cell line) and 4T1 (breast cancer cell line); and two normal cell lines, COS-7 (African green monkey kidney cell line) and rat PBMC (peripheral blood mononuclear cell line).
Cells were cultured in 96-well plates overnight, followed by adding 80 μL of a related medium containing compounds of different concentrations and dissolved in DMSO for 24 h or 48 h. Then, 40 μL of MTT (2.5 mg/mL) was added and the cells were incubated for another 4 h. The cells were then dissolved in 100 μL of 10% SDS solution or DMSO to release and dissolve the purple MTT products, followed by absorbance detection (BioTek, Winooski, VT, USA).

[1] = MOLM-13, 24 h, read-out: IC50 Molm 24 h
[2] = MOLM-13, 48 h, read-out: IC50 Molm 48 h
[3] = NB-4, 24 h, read-out: IC50 NB4 24 h
[4] = NB-4, 48 h, read-out: IC50 NB4 48 h
[5] = 4T1, 24 h, read-out: IC50 4T1 24 h
[6] = 4T1, 48 h, read-out: IC50 4T1 48 h
[7] = COS-7, 24 h, read-out: IC50 COS-7 24 h
[8] = COS-7, 48 h, read-out: IC50 COS-7 48 h
[9] = MOLM-13, 24 h, read-out: IC50 Molm
[10] = MOLM-13, 48 h, read-out: IC50 Molm

Structure (SMILES)	IC50 (Molm-13; [1]) [nM]	IC50 (Molm-13; [2]) [nM]	IC50 (NB4; [3]) [nM]	IC50 (NB4; [4]) [nM]	IC50 (4T1; 4T1, 24 h, read-out: IC50 4T1) [nM]	IC50 (4T1; [5]) [nM]	IC50 (4T1; 4T1, 48 h, read-out: IC50 4T1) [nM]	IC50 (4T1; [6]) [nM]	IC50 (HeLa; 24 h, read-out: IC50 HeLa 24 h) [nM]	IC50 (HeLa; 48 h, read-out: IC50 HeLa 48 h) [nM]	IC50 (COS-7; [7]) [nM]	IC50 (COS-7; [8]) [nM]	IC50 (PBMC; 24 h, read-out: IC50 PBMC 24 h) [µM]	IC50 (PBMC; 48 h, read-out: IC50 PBMC 48 h) [µM]	IC50 (Molm-13; [9]) [nM]	IC50 (Molm-13; [10]) [nM]	IC50 (NB4; NB-4, 24 h, read-out: IC50 NB4) [nM]	IC50 (NB4; NB-4, 48 h, read-out: IC50 NB4) [nM]	anti-proliferation activity to cancer cells (cancer cells)
CCc1ccc(C(=O)Nc2ccc([As]3SCCCS3)cc2)cc1 [EZ2, N-(4-(1,3,2-dithiarsinan-2-yl)phenyl)-4-ethylbenzamide]	1100	1020	410	300	1400 ± 120	1400	1400 ± 120	1400	1010	810	4200	2100	3.7	2.9	–	–	–	–	–
COc1cc(C(=O)Nc2ccc([As]3SCCCS3)cc2)cc(OC)c1OC [TAZ2, N-(4-(1,3,2-dithiarsinan-2-yl)phenyl)-3,4,5-trimethoxybenzamide]	1600	1500	1000	600	–	3500	–	2200	2000	1040	9100	5200	7.3	6.5	–	–	–	–	–
O=C(Nc1ccc([As]2SCCCS2)cc1)c1ccc(F)cc1 [FZ2, N-(4-(1,3,2-dithiarsinan-2-yl)phenyl)-4-fluorobenzamide]	1200	1000	400	300	–	2300	–	2200	1200	400	3500	2200	5.5	4.7	–	–	–	–	–
COc1cc(C(=O)Nc2ccccc2[As]2SCCCS2)cc(OC)c1OC [TAZ5, N-(2-(1,3,2-dithiarsinan-2-yl)phenyl)-3,4,5-trimethoxybenzamide]	710	700	200	150	700 ± 30	700	700 ± 30	700	800	500	2000	1800	2.2	1.54	–	–	–	–	–
O=C(Nc1ccccc1[As]1SCCCS1)c1ccc(F)cc1 [FZ5, N-(2-(1,3,2-dithiarsinan-2-yl)phenyl)-4-fluorobenzamide]	500	500	150	150	–	700	–	600	350	150	1100	800	2.4	1.82	500 ± 10	500 ± 20	150 ± 100	150 ± 20	–
COc1cc(C(=O)Nc2ccc([As]3SCCCS3)cc2)cc(OC)c1O [HDZ2, N-(4-(1,3,2-dithiarsinan-2-yl)phenyl)-4-hydroxy-3,5-dimethoxybenzamide]	600	600	800	500	–	1000	–	1010	2000	1010	9100	3500	5.8	4.9	600 ± 120	600 ± 120	–	–	–
O=C(O)c1ccc2c(c1)OCO2 [1,3-benzodioxole derivative, piperonylic acid]	–	–	–	–	–	–	–	–	–	–	–	–	–	–	–	–	–	–	no anti-proliferation activity
